Measured values taken from publication PMC9603901, “Therapeutic Potential of Antimicrobial Peptide PN5 against Multidrug-Resistant E. coli and Anti-Inflammatory Activity in a Septic Mouse Model” (Microbiology Spectrum, 2022).
≈ marks a conversion by molar mass, not a printed value.

What was measured:
[1] = system: MDR E. coli ASEC 3; assay: microbe, parasite or virus in culture; type: cell-based, Escherichia coli; settings: microdilution, LB, 18 to 24 h, 37°C, three independent experiments
Protocol: (§1) Bacterial cells were cultured at 37°C in the appropriate culture media with shaking (180 rpm). Luria-Bertani broth (LB) (244620; BD Difco) was used for E. coli ATCC 25922, ASEC strains, and B. subtilis KCTC 2217. Nutrient broth (NB) (234000; BD Difco) was used for P. aeruginosa ATCC 27853, S. Typhimurium KCTC 1926, and A. baumannii KCTC 2508. Tryptic soy broth (TSB) (211825; BD Difco) was used for S. aureus ATCC 25923. Finally, brain heart infusion (BHI) (237500; BD Difco) was used for L. monocytogenes KCTC 3710. The antimicrobial activity of each peptide was determined using microdilution assays. To this end, 2-fold serial dilution series of each peptide (from 1 to 64 μM) were added to duplicate media with 10 mM sodium phosphate buffer (pH 7.4). Fifty microliters of the peptide and antibiotic solution was added to each well of a 96-well plate (32096, surface nontreatment; SPL Life Sciences). Then, 50 μL of 2 × 10^5 CFU mL^−1 of bacteria was added to each well, and the samples were incubated for 18 to 24 h without shaking at 37°C.

[2] = system: MDR E. coli ASEC 14; assay: microbe, parasite or virus in culture; type: cell-based, Escherichia coli; settings: microdilution, LB, 18 to 24 h, 37°C, three independent experiments
Protocol: as §1

[3] = system: MDR E. coli ASEC 15; assay: microbe, parasite or virus in culture; type: cell-based, Escherichia coli; settings: microdilution, LB, 18 to 24 h, 37°C, three independent experiments
Protocol: as §1

[4] = system: MDR E. coli ASEC 9; assay: microbe, parasite or virus in culture; type: cell-based, Escherichia coli; settings: microdilution, LB, 18 to 24 h, 37°C, three independent experiments
Protocol: as §1

[5] = system: MDR E. coli ASEC 18; assay: microbe, parasite or virus in culture; type: cell-based, Escherichia coli; settings: microdilution, LB, 18 to 24 h, 37°C, three independent experiments
Protocol: as §1

[6] = system: MDR E. coli ASEC 17; assay: microbe, parasite or virus in culture; type: cell-based, Escherichia coli; settings: microdilution, LB, 18 to 24 h, 37°C, three independent experiments
Protocol: as §1

[7] = system: MDR E. coli ASEC 8; assay: microbe, parasite or virus in culture; type: cell-based, Escherichia coli; settings: microdilution, LB, 18 to 24 h, 37°C, three independent experiments
Protocol: as §1

[8] = system: MDR E. coli ASEC 12; assay: microbe, parasite or virus in culture; type: cell-based, Escherichia coli; settings: microdilution, LB, 18 to 24 h, 37°C, three independent experiments
Protocol: as §1

[9] = system: MDR E. coli ASEC 16; assay: microbe, parasite or virus in culture; type: cell-based, Escherichia coli; settings: microdilution, LB, 18 to 24 h, 37°C, three independent experiments
Protocol: as §1

[10] = system: MDR E. coli ASEC 19; assay: microbe, parasite or virus in culture; type: cell-based, Escherichia coli; settings: microdilution, LB, 18 to 24 h, 37°C, three independent experiments
Protocol: as §1

[11] = system: MDR E. coli ASEC 4; assay: microbe, parasite or virus in culture; type: cell-based, Escherichia coli; settings: microdilution, LB, 18 to 24 h, 37°C, three independent experiments
Protocol: as §1

[12] = system: MDR E. coli ASEC 2; assay: microbe, parasite or virus in culture; type: cell-based, Escherichia coli; settings: microdilution, LB, 18 to 24 h, 37°C, three independent experiments
Protocol: as §1

[13] = system: MDR E. coli ASEC 13; assay: microbe, parasite or virus in culture; type: cell-based, Escherichia coli; settings: microdilution, LB, 18 to 24 h, 37°C, three independent experiments
Protocol: as §1

[14] = system: MDR E. coli ASEC 5; assay: microbe, parasite or virus in culture; type: cell-based, Escherichia coli; settings: microdilution, LB, 18 to 24 h, 37°C, three independent experiments
Protocol: as §1

[15] = system: MDR E. coli ASEC 11; assay: microbe, parasite or virus in culture; type: cell-based, Escherichia coli; settings: microdilution, LB, 18 to 24 h, 37°C, three independent experiments
Protocol: as §1

[16] = system: MDR E. coli ASEC 10; assay: microbe, parasite or virus in culture; type: cell-based, Escherichia coli; settings: microdilution, LB, 18 to 24 h, 37°C, three independent experiments
Protocol: as §1

[17] = system: MDR E. coli ASEC 6; assay: microbe, parasite or virus in culture; type: cell-based, Escherichia coli; settings: microdilution, LB, 18 to 24 h, 37°C, three independent experiments
Protocol: as §1

[18] = system: MDR E. coli ASEC 1; assay: microbe, parasite or virus in culture; type: cell-based, Escherichia coli; settings: microdilution, LB, 18 to 24 h, 37°C, three independent experiments
Protocol: as §1

[19] = system: MDR E. coli ASEC 7; assay: microbe, parasite or virus in culture; type: cell-based, Escherichia coli; settings: microdilution, LB, 18 to 24 h, 37°C, three independent experiments
Protocol: as §1

[20] = system: B. subtilis KCTC 2217; type: cell-based, Bacillus subtilis; settings: microdilution, LB, 18 to 24 h, 37°C, three independent experiments
Protocol: as §1

[21] = system: RAW 264.7 cells; assay: IncuCyte Cytotox green time-dependent cytotoxicity; type: cell-based, mouse; settings: 25 μM
Protocol: An IncuCyte cytotoxicity assay (Essen BioScience, Inc., Ann Arbor, MI, USA) was performed to evaluate time-dependent cytotoxicity. RAW 264.7 cells (2 × 10^5 cells well^−1) were seeded into 96-well culture plates and then treated with peptides and IncuCyte Cytotox green reagent (Essen BioScience, Inc.). Up to 200 μM PN5 and 25 μM melittin were used to treat RAW 264.7 cells, with the concentrations serially diluted by half. […] The cells were stained with IncuCyte Cytotox green reagent. The viability was measured using IncuCyte software (Essen BioScience, Inc.) ([56]).

[22] = system: L. monocytogenes KCTC 3710; type: cell-based, Listeria monocytogenes; settings: microdilution, BHI, 18 to 24 h, 37°C, three independent experiments
Protocol: as §1

[23] = system: mouse red blood cells; assay: Hemolytic activity; type: cell-based; settings: 8% mouse red blood cells, 1 h, 37°C
Protocol: (§2) RAW 264.7 cells (mouse macrophage cells) were maintained in high-glucose Dulbecco’s modified Eagle medium (DMEM) (Welgene, Daegu, South Korea) supplemented with 10% fetal bovine serum (FBS) (Gibco) and 1% penicillin at 37°C in humidified 5% CO2. Cells (2 × 10^5 cells well^−1) were seeded into DMEM supplemented with 10% FBS medium in a 96-well plate. The MTT assay was performed after culturing the cells in 96-well plates at a density of 2 × 10^5 cells well^−1, followed by treatment with serially diluted PN5, magainin 2, and melittin. After 24 h, the medium was discarded, and 100 μL DMEM and 10% FBS medium containing 0.5 mg mL^−1 MTT were added to each well. After 4 h of incubation, the medium was discarded and dimethyl sulfoxide was added to each well to solubilize the formazan. The optical densities at 570 and 650 nm (OD570 and OD650, respectively) of the treated cells were compared to those of control cells. The hemolytic activity of the peptides was evaluated as the release of hemoglobin from an 8% mRBC suspension. A 100-μL aliquot of the 8% mRBC suspension was added to the wells of a 96-well plate, and 100 μL of peptide solution in phosphate-buffered saline (PBS) was added at a final peptide concentration of 200 μM. After incubation for 1 h at 37°C with shaking (50 rpm), the suspensions were centrifuged at 1,000 × g for 5 min. The absorbance of the supernatant was measured at 414 nm using a Versa Max microplate reader (Molecular Devices). As a control, no hemolysis and complete hemolysis were determined in PBS and 0.1% Triton X-100, respectively. The degree of hemolysis was calculated using the following equation as described in reference: %hemolysis=[(A414withpeptide-A414withPBS)/(A414with0.1%TritonX-100-A414 with PBS)] × 100

[24] = system: A. baumannii KCTC 2508; type: cell-based, Acinetobacter baumannii; settings: microdilution, NB, 18 to 24 h, 37°C, three independent experiments
Protocol: as §1

[25] = system: RAW 264.7 cells; assay: MTT cell viability; type: cell-based, mouse; settings: 24 h
Protocol: as §2

[26] = system: S. Typhimurium KCTC 1926; type: cell-based, Salmonella enterica serovar Typhimurium; settings: microdilution, NB, 18 to 24 h, 37°C, three independent experiments
Protocol: as §1

[27] = system: P. aeruginosa ATCC 27853; type: cell-based, Pseudomonas aeruginosa; settings: microdilution, NB, 18 to 24 h, 37°C, three independent experiments
Protocol: as §1

[28] = system: S. aureus ATCC 25923; type: cell-based, Staphylococcus aureus; settings: microdilution, TSB, 18 to 24 h, 37°C, three independent experiments
Protocol: as §1

[29] = system: E. coli ATCC 25922; assay: NPN uptake, outer membrane permeability; type: cell-based, Escherichia coli; settings: E. coli ATCC 25922, 4× MIC, 60 min, 10 μM NPN, relative to 0.1% Triton X-100
Protocol: The ability of PN5 to permeate the outer bacterial membrane was determined based on the uptake of NPN, a fluorescent dye. Briefly, E. coli 25922 cells grown to the logarithmic phase at 37°C were harvested by centrifugation at 6,000 × g and 4°C for 10 min. The bacterial cells were washed twice with 5 mM HEPES buffer (pH 7.4) and resuspended to OD600 of 0.4. NPN was added to the bacterial suspension at a final concentration of 10 μM. Aliquots of the peptides were added to the bacterial suspensions. Background fluorescence was recorded using a fluorescence spectrophotometer. The excitation and emission wavelengths were set to 350 and 420 nm, respectively. The values were converted to percentage of NPN uptake using the equation % NPN uptake = [(Fobs − F0)/(F100 − F0)] × 100, where Fobs is the fluorescence observed at each peptide concentration, F0 is the initial fluorescence of NPN with E. coli in the absence of peptides, and F100 is the fluorescence of NPN upon the addition of 0.1% Triton X-100, which was used as a positive control ([57]).

Compound | MIC [1] | MIC [2] | MIC [3] | MIC [4] | MIC [5] | MIC [7] | MIC [8] | MIC [9] | MIC [12] | MIC [13] | MIC [14] | MIC [15] | MIC [16] | MIC [17] | MIC [18] | MIC [19] | MIC [20] | MIC [24] | also measured
CC[C@H](C)[C@H](NC(=O)CN)C(=O)NCC(=O)N[C@@H](C)C(=O)N[C@H](C(=O)N[C@@H](CC(C)C)C(=O)N[C@@H](CCCCN)C(=O)N[C@H](C(=O)N[C@@H](CC(C)C)C(=O)N[C@H](C(=O)N[C@H](C(=O)NCC(=O)N[C@@H](CC(C)C)C(=O)N1CCC[C@H]1C(=O)N[C@@H](C)C(=O)N[C@@H](CC(C)C)C(=O)N[C@H](C(=O)N[C@@H](CO)C(=O)N[C@@H](Cc1c[nH]c2ccccc12)C(=O)N[C@H](C(=O)N[C@@H](CCCCN)C(=O)N[C@@H](CCCNC(=N)N)C(=O)N[C@@H](CCCCN)C(=O)N[C@@H](CCCNC(=N)N)C(=O)N[C@@H](CCC(N)=O)C(=O)N[C@@H](CCC(N)=O)C(N)=O)[C@@H](C)CC)[C@@H](C)CC)[C@@H](C)O)[C@@H](C)O)C(C)C)C(C)C [Melittin] | 4 (11.39) μM | 2 (5.69) μM | 4 (11.39) μM | 4 (11.39) μM | 4 (11.39) μM | 4 (11.39) μM | 4 (11.39) μM | 4 (11.39) μM | 4 (11.39) μM | 4 (11.39) μM | 2 (5.69) μM | 4 (11.39) μM | 4 (11.39) μM | 4 (11.39) μM | 4 (11.39) μM | 4 (11.39) μM | 2 µM | 2 µM | MIC [6]: 8 (22.77) μM; MIC [10]: 8 (22.77) μM; MIC [11]: 8 (22.77) μM; cytotoxicity, Cytotox green fluorescence [21]: immediately damaged the cells; MIC [22]: 4 µM (≈ 11.4 µg/mL); hemolysis ([23]; 3.125 μM, PBS, A414, mean of three experiments): 44.02%; hemolysis ([23]; 6.25 μM): 77.24%; toxicity, MTT assay ([25]; 6.25 μM): over 50%; MIC [26]: 4 µM (≈ 11.4 µg/mL)
Magainin 2 | 16 (39.47) μM | 4 (9.87) μM | 16 (39.47) μM | 8 (19.74) μM | 16 (39.47) μM | 16 (39.47) μM | 16 (39.47) μM | 8 (19.74) μM | 8 (19.74) μM | 16 (39.47) μM | 16 (39.47) μM | 16 (39.47) μM | 16 (39.47) μM | 4 (9.87) μM | 16 (39.47) μM | 8 (19.74) μM | 39.47 mg/L | 19.74 mg/L | MIC [27]: 32 µM; MIC [28]: 39.47 mg/L; toxicity, MTT assay ([25]; 200 μM): over 50%; NPN uptake [29]: 35.7%
